Experiments:
HCT-116 = experiment: Antiproliferative activity against human HCT116 cells incubated for 48 hrs by MTT assay; format: functional, cell-based; settings: HCT-116, 48 h
MDA-MB-231 = experiment: Antiproliferative activity against human MDA-MB-231 cells incubated for 48 hrs by MTT assay; format: functional, cell-based; settings: MDA-MB-231, 48 h
HepG2 = experiment: Antiproliferative activity against human HepG2 cells incubated for 48 hrs by MTT assay; format: functional, cell-based; settings: HepG2, 48 h
A549 = experiment: Antiproliferative activity against human A549 cells incubated for 48 hrs by MTT assay; format: functional, cell-based; settings: A549, 48 h
HeLa = experiment: Antiproliferative activity against human HeLa cells incubated for 48 hrs by MTT assay; format: functional, cell-based
[1] = Inhibition of porcine brain tubulin polymerization measured every 60 secs for 90 mins by DAPI dye based fluorescence assay; design: species or system Sus scrofa

IC50 (HCT-116) [nM] | IC50 (MDA-MB-231) [nM] | IC50 (HepG2) [nM] | IC50 (A549) [nM] | IC50 (HeLa) [nM] | IC50 [1] [nM] | Structure (SMILES)
1140 | 992 | 168 | 591 | 307 | – | COc1ccc(N(C)c2ccnc(Cl)n2)cc1OCCCCBr
1170 | 1380 | 2630 | 621 | 517 | – | COc1ccc(N(C)c2ccnc(Cl)n2)cc1Cl
584 | 2780 | 2060 | 632 | 471 | – | COc1ccc(N(C)c2cc(C)nc(C)n2)cc1F
5670 | 6620 | 7720 | 4640 | 3310 | – | COc1ccc(N(C)c2ccnc(Cl)n2)cc1OCCBr
4670 | 3440 | 2980 | 3270 | 3720 | – | COc1ccc(N(C)c2cc(C)nc(C)n2)cc1[N+](=O)[O-]
1970 | 1280 | 1240 | 862 | 307 | – | COc1ccc(N(C)c2ccnc(Cl)n2)cc1OCCCBr
1460 | 2820 | 2120 | 611 | 917 | – | COc1ccc(N(C)c2ccnc(Cl)n2)cc1
914 | 1280 | 844 | 651 | 241 | – | COc1ccc(N(C)c2ccnc(Cl)n2)cc1F
> 10000 | > 10000 | > 10000 | > 10000 | > 10000 | – | COc1ccc(N(C)c2ccnc(Cl)n2)cc1OCCCCC[Se]C#N
1320 | 3650 | 824 | 277 | 322 | – | COc1ccc(N(C)c2cc(C)nc(C)n2)cc1
4700 | 8120 | 6120 | 3780 | 4720 | – | COc1ccc(N(C)c2ccnc(Cl)n2)cc1[N+](=O)[O-]
5 | – | – | 4 | 6 | 2740 | COc1ccc(N(C)c2nc(C)nc3ccccc23)cc1 [VERUBULIN]
1190 | 1900 | 787 | 780 | 316 | – | COc1ccc(N(C)c2cc(C)nc(C)n2)cc1Cl
> 10000 | > 10000 | > 10000 | 9720 | 7080 | – | COc1ccc(N(C)c2ccnc(Cl)n2)cc1OCCCCCBr
422 | 833 | 464 | 381 | 96 | 6110 | COc1ccc(N(C)c2ccnc(Cl)n2)cc1O

Structure (SMILES) | IC50 (HCT-116) [nM] | IC50 (MDA-MB-231) [nM] | IC50 (HepG2) [nM] | IC50 (A549) [nM] | IC50 (HeLa) [nM] | IC50 [1] [nM]
COc1ccc(N(C)c2ccnc(Cl)n2)cc1OCCCC[Se]C#N | > 10000 | > 10000 | > 10000 | > 10000 | > 10000 | –
Cc1cc(N(C)c2ccc([Se]C#N)cc2)nc(C)n1 | 245 | 614 | 155 | 207 | 252 | –
C[Se]c1ccc(N(C)c2cc(C)nc(C)n2)cc1 | 465 | 321 | 198 | 218 | 138 | –
COc1ccc(N(C)c2ccnc(Cl)n2)cc1OCCC[Se]C#N | 3920 | 1480 | 5150 | 3710 | 4710 | –
COc1ccc(N(C)c2ccnc(Cl)n2)cc1OCC[Se]C#N | 1220 | 2750 | 1670 | 463 | 436 | –

Source: ChEMBL document CHEMBL4190378, “Synthesis and evaluation of new 2-chloro-4-aminopyrimidine and 2,6-dimethyl-4-aminopyrimidine derivatives as tubulin polymerization inhibitors” (Bioorg Med Chem Lett, 2018)
